These results are taken from ChEMBL document CHEMBL4706644, “Structure-Activity Relationship Studies of Pyrimidine-4-Carboxamides as Inhibitors of N-Acylphosphatidylethanolamine Phospholipase D” (J Med Chem, 2021).

For one experiment, the target named is T1, N-acyl-phosphatidylethanolamine-hydrolyzing phospholipase D (Homo sapiens, UniProt Q6IQ20). The experiment in a line: Inhibition of full length human NAPE-PLD expressed in HEK293 cells using radiolabelled diether-NAPE as substrate incubated for 20 mins by liquid scintillation counter analysis.
T1 sequence (Q6IQ20 whole entry): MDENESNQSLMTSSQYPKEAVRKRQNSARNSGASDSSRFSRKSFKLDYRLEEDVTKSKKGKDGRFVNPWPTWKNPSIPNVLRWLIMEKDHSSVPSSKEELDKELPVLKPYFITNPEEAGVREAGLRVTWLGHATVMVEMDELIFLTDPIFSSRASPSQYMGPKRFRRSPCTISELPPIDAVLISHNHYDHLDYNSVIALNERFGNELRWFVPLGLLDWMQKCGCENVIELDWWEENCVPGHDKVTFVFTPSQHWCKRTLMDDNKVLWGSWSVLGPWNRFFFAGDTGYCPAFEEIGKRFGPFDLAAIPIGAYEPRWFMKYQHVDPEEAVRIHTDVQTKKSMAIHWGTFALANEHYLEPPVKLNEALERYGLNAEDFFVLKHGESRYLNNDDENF
In general, IC50 refers to the concentration needed to halve the response being measured. A low value points to greater potency. The compound `CCCCCCCCCCCCCC(=O)NCCNP(=O)(O)OCC(COC(=O)CCCCC)OC(=O)CCCCC` (stereo unspecified) had a half-maximal inhibitory concentration (IC50) of 10 µM. This counts as double-digit micromolar.

A further experiment deals with T2, N-acyl-phosphatidylethanolamine-hydrolyzing phospholipase D (Mus musculus, UniProt Q8BH82).
T2 sequence (Q8BH82 whole entry): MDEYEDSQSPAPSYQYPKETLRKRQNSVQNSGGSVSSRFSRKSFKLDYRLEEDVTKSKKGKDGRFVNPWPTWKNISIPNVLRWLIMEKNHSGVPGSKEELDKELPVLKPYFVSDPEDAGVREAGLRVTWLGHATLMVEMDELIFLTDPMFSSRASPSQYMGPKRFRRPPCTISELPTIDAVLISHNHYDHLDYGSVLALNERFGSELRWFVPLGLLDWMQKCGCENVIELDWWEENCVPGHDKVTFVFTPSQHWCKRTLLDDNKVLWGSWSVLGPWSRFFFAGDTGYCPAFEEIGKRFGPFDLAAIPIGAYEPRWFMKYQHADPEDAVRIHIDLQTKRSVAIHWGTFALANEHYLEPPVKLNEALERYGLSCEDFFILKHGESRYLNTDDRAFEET
Put plainly: Inhibition of full length mouse NAPE-PLD expressed in HEK293T cell lysate using PED6 as substrate preincubated for 30 mins followed by substrate addition and measured at 2 mins interval for 1 hr by tecan-plate reader analysis. It is filed as subcellular.
`O=C(NCC1CC1)c1cc(N2CCS(=O)(=O)CC2)nc(N2CCC[C@@H](c3ccccc3)C2)n1` showed an IC50 of 9.55 µM.
Turning to `CN(CCc1ccccc1)c1nc(C(=O)NCC2CC2)cc(N2CCOCC2)n1`, the IC50 is 3.31 µM.
On the same count and under the same terms, to `O=C(NCC1CC1)c1cc(N2CC[C@H](O)C2)nc(N2CCC[C@H](c3ccccc3)C2)n1` belongs 1.82 µM; to `O=C(NCC1CC1)c1cc(N2CC[C@H](O)C2)nc(N2CCC[C@@H](c3ccccc3)C2)n1`, 0.447 µM; to `O=C(NCC1CC1)c1cc(N2CC[C@@H](O)C2)nc(N2CCC[C@@H](c3ccccc3)C2)n1`, 0.38 µM.
On the same count and under the same terms, to `O=C(NCC1CC1)c1cc(N2CCOCC2)nc(N2CCC[C@@H](c3ccccc3)C2)n1` belongs 0.575 µM; to `CN(C)c1cc(C(=O)NCC2CC2)nc(N2CCC[C@@H](c3ccccc3)C2)n1`, 0.389 µM; to `O=C(NCC1CC1)c1cc(N2CC[C@@H](O)C2)nc(N2CCC[C@H](c3ccccc3)C2)n1`, 1.26 µM.

Another experiment concerns the target T1, N-acyl-phosphatidylethanolamine-hydrolyzing phospholipase D. The experiment in a line: Inhibition of full length human NAPE-PLD expressed in HEK293T cell lysate using PED6 as substrate preincubated for 30 mins followed by substrate addition and measured at 2 mins interval for 1 hr by tecan-plate reader analysis. In kind it is subcellular.
The compound `O=C(NCC1CC1)c1cc(N2CCOCC2)nc(N2CCCCC2CC2CCCCC2)n1` (racemic) gave an IC50 of 25.1 µM.
Turning to `CN(CCc1ccccc1)c1nc(C(=O)NCC(C)(C)C)cc(N2CCOCC2)n1`, the IC50 is 21.4 µM. The IC50 values of the last two compounds are within 1.5-fold of each other.
Same read-out and setting: to `CN(CCc1ccccc1)c1nc(C(=O)O)cc(N2CCOCC2)n1` belongs over 50.1 µM; to `O=C(NCC1CC1)c1cc(N2CCS(=O)(=O)CC2)nc(N2CCC[C@@H](c3ccccc3)C2)n1`, 17.4 µM; to `CN(CCc1ccccc1)c1nc(C(=O)NCC2CC2)cc(N2CCS(=O)(=O)CC2)n1`, over 50.1 µM.
Regarding `CN(CCc1ccccc1)c1nc(C(=O)NCC2CC2)cc(N2CCOCC2)n1`, it took 0.813 µM to reach half-maximal inhibition (IC50).
The same measure, in the same setting: to `CN(CCc1ccccc1)c1nc(C(=O)NCC#N)cc(N2CCOCC2)n1` belongs 30.9 µM; to `CN(CCc1ccccc1)c1nc(C(=O)NCC(=O)O)cc(N2CCOCC2)n1`, over 50.1 µM; to `CN(CCc1ccccc1)c1nc(-c2ncc(C3CC3)[nH]2)cc(N2CCOCC2)n1`, 40.7 µM.
Still for that read-out and setting: as for `O=C(NCC1CC1)c1cc(N2CCOCC2)nc(N(CCc2ccccc2)c2ccccc2)n1`, the figure is 1.12 µM; as for `CN(CCc1ccccc1)c1nc(NC(=O)CC2CC2)cc(N2CCOCC2)n1`, 7.59 µM; as for `CN(CC1CC1)C(=O)c1cc(N2CCOCC2)nc(N(C)CCc2ccccc2)n1`, over 50.1 µM.
Still for that read-out and setting: as for `CN(CCc1ccccc1)c1nc(C(=O)NCC2CC2)cc(N2CCN(C(=O)OCc3ccccc3)CC2)n1`, the figure is 12.9 µM; as for `CN(CCc1ccccc1)c1nc(C(N)=O)cc(N2CCOCC2)n1`, 17.8 µM.
Regarding `CN(CCc1ccccc1)c1nc(C(=O)NCc2ccccc2)cc(N2CCOCC2)n1`, the half-inhibitory concentration (IC50) was 23.4 µM.
Same read-out and setting: to `CN(CCc1ccccc1)c1nc(C(=O)NCc2nccs2)cc(N2CCOCC2)n1` belongs 32.4 µM; to `CNC(=O)CNC(=O)c1cc(N2CCOCC2)nc(N(C)CCc2ccccc2)n1`, 17 µM.
On the same count and under the same terms, as for `O=C(NCC1CC1)c1cc(N2CCOCC2)nc(Cl)n1`, the figure is over 50.1 µM.
Same read-out and setting: to `O=C(NCC1CC1)c1cc(N2CCOCC2)nc(N(CCc2ccccc2)Cc2ccccc2)n1` belongs 0.741 µM; to `O=C(NCC1CC1)c1cc(N2CCOCC2)nc(NCc2ccccc2)n1`, 22.9 µM; to `O=C(NCC1CC1)c1cc(N2CCOCC2)ncn1`, over 50.1 µM.
`CN(CCc1ccccc1)c1nc(C(=O)NCC(F)(F)F)cc(N2CCOCC2)n1`: the IC50 is 33.1 µM. This lies in the double-digit micromolar range.
The same measure, in the same setting: to `CNC(=O)c1cc(N2CCOCC2)nc(N(C)CCc2ccccc2)n1` belongs 13.5 µM.
The same measure, in the same setting: as for `CN(CCc1ccccc1)c1nc(C(=O)NCc2ccc(-c3ccccc3)cc2)cc(N2CCOCC2)n1`, the figure is over 50.1 µM.
Still for that read-out and setting: to `CN(CCc1ccccc1)c1nc(C(=O)NCC2CC2)nc(N2CCOCC2)n1` belongs over 50.1 µM.
`COCCNC(=O)c1cc(N2CCOCC2)nc(N(C)CCc2ccccc2)n1` had an IC50 of 11 µM.
The same measure, in the same setting: as for `CCCCCCNC(=O)c1cc(N2CCOCC2)nc(N(C)CCc2ccccc2)n1`, the figure is 34.7 µM.
